pEC50: −log10 of the molar value. Where two headings read alike, the source gives them in different places.
What was measured:
[1] = system: Tacaribe virus (TRVL 11573); assay: microbe, parasite or virus in culture; type: cell-based; conditions: Mammarenavirus tacaribeense, Vero, read-out: Tacaribe EC50
[2] = system: Candide I; assay: microbe, parasite or virus in culture; type: cell-based, Junin virus (vaccine strain); conditions: Mammarenavirus juninense, read-out: Candide I
[3] = system: Tacaribe virus; assay: microbe, parasite or virus in culture; type: cell-based; conditions: Mammarenavirus tacaribeense, Vero, 168 h, read-out: Tacaribe EC50
[4] = system: Machupo pseudotyped virus; assay: microbe, parasite or virus in culture; type: cell-based; conditions: Mammarenavirus machupoense, read-out: EC50 vs. pseudotyped virus (μM) Machupo
[5] = system: Candid-1 vaccine virus; assay: microbe, parasite or virus in culture; type: cell-based, Junin virus (vaccine strain); conditions: Mammarenavirus juninense, Vero, 168 h, read-out: Candid 1 EC50
[6] = system: Guanarito pseudotyped virus; assay: microbe, parasite or virus in culture; type: cell-based; conditions: Mammarenavirus guanaritoense, read-out: EC50 vs. pseudotyped virus (μM) Guanarito
[7] = system: Tacaribe pseudotyped virus; assay: microbe, parasite or virus in culture; type: cell-based; conditions: Mammarenavirus tacaribeense, read-out: EC50 vs. pseudotyped virus (μM) Tacaribe
[8] = system: Pichinde pseudotyped virus; assay: microbe, parasite or virus in culture; type: cell-based; conditions: read-out: EC50 vs. pseudotyped virus (μM) Pichinde
[9] = system: VSV pseudotyped virus; assay: microbe, parasite or virus in culture; type: cell-based; conditions: Vesicular stomatitis virus, read-out: EC50 vs. pseudotyped virus (μM) VSV
[10] = in vivo
[11] = system: Machupo virus; type: cell-based; conditions: read-out: Machupo (Plaque reduction) EC50
[12] = system: Guanarito virus; type: cell-based; conditions: read-out: Guanarito (Plaque reduction) EC50
[13] = mouse, in vivo, ip, 100 mg/kg/day
[14] = system: ST-336 drug resistant Tacaribe virus variants (DR#1-4); type: cell-based
[15] = system: Tacaribe virus; type: cell-based; conditions: read-out: Tacaribe (Plaque reduction) EC50
[16] = system: Junin virus; type: cell-based; conditions: read-out: Junin (Plaque reduction) EC50
[17] = system: S. typhimurium tester strains TA7007, TA7006 and TA98
[18] = system: Tacaribe virus; type: cell-based; conditions: for pEC50: read-out: Tacaribe (CPE) EC50
[19] = system: Tacaribe virus; parameters: species or system BALB/c mice; conditions: mouse, in vivo
[20] = in vivo, 10 mg/kg
[21] = system: Vero cells
[22] = system: SARS-CoV; type: cell-based; conditions: read-out: SARS (CPE) EC50
[23] = in vivo; remark: listed apart in the source
[24] = system: intact Tacaribe virion; type: binding, Tacaribe virus
[25] = system: Tacaribe virus; type: cell-based
[26] = system: Candid-1 vaccine virus; type: cell-based, Junin virus (vaccine strain); conditions: read-out: Candid1 (CPE) EC50
[27] = system: Ebola virus; type: cell-based; conditions: read-out: Ebola (CPE) EC50
[28] = system: HSV-1; type: cell-based, herpes simplex virus 1; conditions: read-out: HSV-1 (CPE) EC50
[29] = system: RSV-A; type: cell-based, Respiratory syncytial virus; conditions: read-out: RSV-A (CPE) EC50
[30] = system: intact Tacaribe virion; type: binding, Tacaribe virus; remark: listed apart in the source
[31] = system: Lassa virus; type: cell-based; conditions: read-out: Lassa (plaque reduction) EC50
[32] = system: Amapari virus; type: cell-based; conditions: read-out: Amapari (CPE) EC50
[33] = system: Rotavirus; type: cell-based; conditions: read-out: Rotavirus (CPE) EC50
[34] = system: vaccinia virus; type: cell-based; conditions: read-out: Vaccinia (CPE) EC50
[35] = system: CMV; type: cell-based, cytomegalovirus; conditions: read-out: CMV (Elisa) EC50
[36] = system: LCMV; type: cell-based, lymphocytic choriomeningitis virus; conditions: read-out: LCMV (Elisa) EC50
[37] = in vivo; cited from earlier work

## Cc1nn(C)c(Cl)c1S(=O)(=O)NNC(=O)NC(C)(C(F)(F)F)C(F)(F)F [Example 21, N-2-(1,1,1,3,3,3-Hexafluoro-2-methylpropyl)-2-[2-(5-chloro-1,3-dimethyl-1H-pyrazolyl)sulfonyl]hydrazine-1-carboxamide]
[1]
  pEC50: 6.00 to 6.30
[2]
  pEC50: 5.30 to 6.00

## CC(=O)c1ccc(S(=O)(=O)NNC(=O)NC(C)(C(F)(F)F)C(F)(F)F)cc1 [Example 39, N-2-(1,1,1,3,3,3-Hexafluoro-2-methylpropyl)-2-[(4-acetylphenyl)sulfonyl]hydrazine-1-carboxamide]
[1]
  pEC50: 5.30 to 6.00
[2]
  pEC50: < 5.30

## CCC(NC(=O)NNC(=O)c1ccc(Br)cc1)(C(F)(F)F)C(F)(F)F [Example 108, N-[1,1-bis(trifluoromethyl)propyl]-2-(4-bromobenzoyl)hydrazinecarboxamide]
[3]
  pEC50: 6.00 to 6.30
[4]
  EC50: < 0.5 µM
[5]
  pEC50: 5.30 to 6.00
[6]
  EC50: < 0.5 µM
[7]
  EC50: < 0.5 µM
[8]
  EC50: 1 to 5 µM
[9]
  EC50: > 5 µM

## CCC(NC(=O)NNC(=O)c1ccc(C(C)C)cc1)(C(F)(F)F)C(F)(F)F [Example 109, N-[1,1-bis(trifluoromethyl)propyl]-2-(4-isopropylbenzoyl)hydrazinecarboxamide]
[3]
  pEC50: > 6.30
[4]
  EC50: < 0.5 µM
[5]
  pEC50: 5.30 to 6.00
[6]
  EC50: < 0.5 µM
[7]
  EC50: < 0.5 µM
[8]
  EC50: > 5 µM
[9]
  EC50: > 5 µM

## CCC(NC(=O)NNC(=O)c1cc(C)cc(C)c1)(C(F)(F)F)C(F)(F)F [Example 110, N-[1,1-bis(trifluoromethyl)propyl]-2-(3,5-dimethylbenzoyl)hydrazinecarboxamide]
[3]
  pEC50: > 6.30
[4]
  EC50: < 0.5 µM
[5]
  pEC50: 5.30 to 6.00
[6]
  EC50: 0.5 to 1 µM
[7]
  EC50: < 0.5 µM
[8]
  EC50: 1 to 5 µM
[9]
  EC50: > 5 µM

## CCC(NC(=O)NNC(=O)c1cc(Cl)ccc1OC)(C(F)(F)F)C(F)(F)F [Example 112, N-[1,1-bis(trifluoromethyl)propyl]-2-(5-chloro-2-methoxybenzoyl)hydrazinecarboxamide]
[3]
  pEC50: > 6.30
[4]
  EC50: < 0.5 µM
[5]
  pEC50: < 5.30
[6]
  EC50: < 0.5 µM
[7]
  EC50: < 0.5 µM
[8]
  EC50: 1 to 5 µM
[9]
  EC50: > 5 µM

## CC(NC(=O)NNS(=O)(=O)c1ccc(OC(F)F)cc1)(C(F)(F)F)C(F)(F)F [ST-294, N-2-(1,1,1,3,3,3-hexafluoro-1-methylpropyl)-2-[(4-difluoromethoxyphenyl)sulfonyl]hydrazine-1-carboxamide]
[10]
  PK (rat/oral) ½ life: 2 h
[10]; rat, po
  Cmax (serum levels): 6670 ng/mL
[11]
  pEC50: 6.52
[12]
  pEC50: 6.00
[13]
  tolerability: well tolerated
[14]
  susceptibility of drug resistant Tacaribe mutants (DR#1-4): cross-resistance
[15]
  pEC50: 7.00
[16]
  pEC50: 6.52
[17]
  Genotoxicity (Ames test): negative
[18]
  in vitro antiviral concentration required to inhibit Tacaribe virus CPE (EC50): 0.066 µg/mL
  pEC50: 6.92
[19]
  efficacy (survival, delay in death): showed efficacy
[20]
  PK (newborn mouse/IP) Cmax: 2910 ng/mL
  PK (newborn mouse/IP) ½ life: 3 h
[21]
  CC50: > 50000 nM

## CCC(NC(=O)NNS(=O)(=O)c1ccc(C)cc1)(C(F)(F)F)C(F)(F)F [ST-336]
[22]
  pEC50: < 4.70
[23]
  pharmacokinetic (PK) properties in rodents: poor pharmacokinetic (PK) properties
[24]
  binding to intact virus (serial dilution): binds with at least a slow Koff to intact protein present on Tacaribe virus
[11]
  pEC50: 6.82
[12]
  pEC50: 6.52
[25]
  effect on Tacaribe virus yield: no effect on virus yield
  effect on Tacaribe virus yield by time of addition: exerted its inhibitory effect only at the very early stage in the virus life cycle
[14]
  growth of ST-336 DR isolates in the presence of compound: unaffected
[15]
  pEC50: 7.00
[16]
  pEC50: 6.82
[26]
  pEC50: 7.21
[27]
  pEC50: < 4.70
[28]
  pEC50: < 4.70
[29]
  pEC50: < 4.70
[30]
  binding to intact virions (dialysis): binds intact virions with a very slow dissociation constant
[31]
  pEC50: < 4.70
[18]
  pEC50: 7.26
[18]; read-out: Tacaribe (CPE) EC90
  EC90: 125 nM
[32]
  pEC50: < 4.70
[33]
  pEC50: < 4.70
[34]
  pEC50: < 4.70
[35]
  pEC50: < 4.70
[36]
  pEC50: < 4.70

## NC(=O)c1ncn([C@@H]2O[C@H](CO)[C@@H](O)[C@H]2O)n1 [ribavirin, Ribavirin]
[37]
  adverse effects: dose-related, reversible hemolytic anemia

Reference: patent US8658697B2 (priority 2004, dated 2014)
